Structures are written as SMILES.

One test concerns the target T1, Solute carrier family 12 member 5 (Homo sapiens, UniProt Q9H2X9).
T1 sequence (Q9H2X9 whole entry): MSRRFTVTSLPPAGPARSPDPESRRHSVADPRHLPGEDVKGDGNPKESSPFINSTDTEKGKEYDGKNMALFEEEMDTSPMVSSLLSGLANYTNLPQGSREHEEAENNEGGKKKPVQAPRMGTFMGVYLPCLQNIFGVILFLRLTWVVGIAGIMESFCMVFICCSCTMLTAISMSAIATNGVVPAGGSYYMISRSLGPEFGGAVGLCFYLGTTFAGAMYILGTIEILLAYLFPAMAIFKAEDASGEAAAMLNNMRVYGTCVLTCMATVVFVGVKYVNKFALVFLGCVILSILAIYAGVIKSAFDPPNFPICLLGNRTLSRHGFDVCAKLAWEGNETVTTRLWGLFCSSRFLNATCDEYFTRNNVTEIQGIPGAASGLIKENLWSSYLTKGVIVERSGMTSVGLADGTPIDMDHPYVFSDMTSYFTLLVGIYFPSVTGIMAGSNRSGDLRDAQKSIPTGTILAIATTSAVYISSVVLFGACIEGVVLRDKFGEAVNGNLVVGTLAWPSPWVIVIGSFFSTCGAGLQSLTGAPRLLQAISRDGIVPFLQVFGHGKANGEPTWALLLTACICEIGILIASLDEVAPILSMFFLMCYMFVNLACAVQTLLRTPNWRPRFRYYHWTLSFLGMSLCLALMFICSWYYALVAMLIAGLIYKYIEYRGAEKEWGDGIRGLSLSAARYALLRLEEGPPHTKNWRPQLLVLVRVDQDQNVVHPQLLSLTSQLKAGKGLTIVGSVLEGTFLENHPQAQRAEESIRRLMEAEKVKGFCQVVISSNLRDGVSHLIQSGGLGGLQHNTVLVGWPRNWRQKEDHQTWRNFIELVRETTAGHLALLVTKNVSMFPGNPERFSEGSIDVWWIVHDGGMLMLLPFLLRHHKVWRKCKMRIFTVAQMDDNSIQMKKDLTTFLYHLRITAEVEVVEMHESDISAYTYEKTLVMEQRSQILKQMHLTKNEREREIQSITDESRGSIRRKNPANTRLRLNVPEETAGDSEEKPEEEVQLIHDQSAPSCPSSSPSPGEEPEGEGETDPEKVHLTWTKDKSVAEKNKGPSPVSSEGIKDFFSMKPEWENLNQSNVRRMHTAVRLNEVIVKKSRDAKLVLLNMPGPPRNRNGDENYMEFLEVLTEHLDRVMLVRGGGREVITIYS
Put plainly: concentration-response of KCC2 transport modulators – cell-based, HEK293 KCC2, FluoZin-2 fluorescence, dose response (AID 1736).
Settings: not given
As to `Cc1cc(C)c(C#N)c(N2CCN(Cc3ccccc3)CC2)n1` [2-(4-benzyl-1-piperazinyl)-4,6-dimethylnicotinonitrile], the EC50 stood at 11.3 µM.
Regarding `CCOc1ccc2nc(Sc3cc(O)n(-c4cccc(OC)c4)c3O)sc2c1` [3-(6-Ethoxy-benzothiazol-2-ylsulfanyl)-1-(3-methoxy-phenyl)-pyrrolidine-2,5-dione], the EC50 turned out to be 244 µM.
`Cc1ccc(C2=CSC3=NNC4(CCCCC4)NN23)cc1` [SMR000306481] showed an EC50 of 2.52 µM. This EC50 lies about 97-fold lower than the previous one.
As for `c1ccc(-n2cnc3cc(NCc4ccncc4)ccc32)cc1` [(1-phenylbenzimidazol-5-yl)-(4-pyridylmethyl)amine], it took 1.92 µM to reach a half-maximal effect (EC50).
`CN(C)S(=O)(=O)c1cccc(NC(=O)c2cc3c(cc2Cl)N2CCCCC=C2NS3(=O)=O)c1` [2-chloranyl-N-[3-(dimethylsulfamoyl)phenyl]-5,5-bis(oxidanylidene)-8,9,10,11-tetrahydro-7H-azepino[2,1-c][1,2,4]benzothiadiazine-3-carboxamide] returned an EC50 of 281 µM.
The same measure, in the same setting: next, `Cc1ccc(C(=O)CC=Nc2ccccc2C(N)=O)cc1` [2-[[(E)-3-(4-methylphenyl)-3-oxidanylidene-prop-1-enyl]amino]benzamide]: 3.36 µM; `O=C(C1CCN(S(=O)(=O)c2cccc3nsnc23)CC1)N1CCc2ccccc2C1` [2-{[1-(2,1,3-benzothiadiazol-4-ylsulfonyl)piperidin-4-yl]carbonyl}-1,2,3,4-tetrahydroisoquinoline]: 69.7 µM.
`Cc1onc(-c2ccccc2Cl)c1C(=O)NC(=S)Nc1ccc(C(C)C)cc1` [3-(2-chlorophenyl)-5-methyl-N-(p-cumenylthiocarbamoyl)isoxazole-4-carboxamide]: a half-maximal response (EC50) required 0.271 µM.
For `Cc1c(N=C2Nc3cccc4cccc2c34)c(=O)n(-c2ccccc2)n1C` [4-(2-benzo[cd]indolylamino)-1,5-dimethyl-2-phenyl-3-pyrazolone], the EC50 came to 1.48 µM.
`O=C(NCc1cccnc1)c1ccc(COc2ccc(Cl)cc2Cl)o1` [5-[(2,4-dichlorophenoxy)methyl]-N-(3-pyridinylmethyl)-2-furancarboxamide]: the response was half-maximal at 668 µM (EC50).
The same measure, in the same setting: next, `COc1ccc(N2C(=S)N=C(Nc3cccc(C)c3)C23CCCCC3)cc1` [1-(4-methoxyphenyl)-4-(3-methylanilino)-1,3-diazaspiro[4.5]dec-3-ene-2-thione]: 771 µM; `O=C(OCc1ccccn1)c1ccc(COc2ccccc2Cl)o1` [5-(2-Chloro-phenoxymethyl)-furan-2-carboxylic acid pyridin-2-ylmethyl ester]: 14.3 µM.
Turning to `COc1cccc(Nc2nnc(S)s2)c1` [5-(3-methoxyanilino)-3H-1,3,4-thiadiazole-2-thione], it took 3.05 µM to reach a half-maximal effect (EC50).
Still for that read-out and setting: next, `O=C(Cn1nnc2c(cnn2-c2ccccc2)c1=O)N1CCN(c2ccccc2F)CC1` [3-[2-[4-(2-fluorophenyl)-1-piperazinyl]-2-oxoethyl]-7-phenyl-4-pyrazolo[3,4-d]triazinone]: 147 µM.
`Cc1ccc(C)c(NC(=O)CSc2nnc([C@@H](N)Cc3ccccc3)o2)c1` [2-[5-((S)-1-Amino-2-phenyl-ethyl)-[1,3,4]oxadiazol-2-ylsulfanyl]-N-(2,5-dimethyl-phenyl)-acetamide] returned an EC50 of 5.54 µM. Compared with the last molecule, the EC50 is about 27-fold lower.
As for `O=S(=O)(NC1CCCC1)c1cccc(S(=O)(=O)N2CCC(n3nnc4ccccc43)CC2)c1` [3-(4-Benzotriazol-1-yl-piperidine-1-sulfonyl)-N-cyclopentyl-benzenesulfonamide], the EC50 is 4.9 µM.
Regarding `CC(C)(CN=C(S)NCCc1ccccc1)CN=C(S)NCCc1ccccc1` [1-[2,2-dimethyl-3-(2-phenylethylcarbamothioylamino)propyl]-3-(2-phenylethyl)thiourea], the EC50 amounted to 165 µM.
Molecule `O=C(Cn1cnc2c(nnn2Cc2ccc(F)cc2)c1=O)N1CCN(c2ccccc2)CC1` [3-(4-fluorobenzyl)-6-[2-keto-2-(4-phenylpiperazino)ethyl]triazolo[4,5-d]pyrimidin-7-one] showed an EC50 of 20 µM.
`C=CCNc1oc(Cc2cccc3ccccc23)nc1C#N` [2-(1-naphthalenylmethyl)-5-(prop-2-enylamino)-4-oxazolecarbonitrile] came in with an EC50 of 4.78 µM.
Turning to `COCCN1C(=O)/C(=C/c2ccc(OCc3ccc(C(=O)O)cc3)c(OC)c2)S/C1=N/c1ccccc1` [4-[(2-methoxy-4-{[3-(2-methoxyethyl)-4-oxo-2-(phenylimino)-1,3-thiazolidin-5-ylidene]methyl}phenoxy)methyl]benzoic acid], the concentration for a half-maximal effect (EC50) is 44.9 µM. This EC50 is about 9.4-fold higher than that of the molecule before.
Still for that read-out and setting: next, `Cc1nn(-c2nc3ccccc3[nH]2)c(N)c1-c1ccccc1` [MLS000063763]: 21.3 µM; `Cc1onc(C(=O)N2CCN(Cc3ccccc3)CC2)c1[N+](=O)[O-]` [(4-benzylpiperazin-1-yl)-(5-methyl-4-nitro-1,2-oxazol-3-yl)methanone]: 59.4 µM; `CCn1c(SCC(=O)Nc2ccc(Cl)cc2)nc2nc3c(cc2c1=O)CCCC3` [MLS000589154]: 28.2 µM.
Turning to `CCn1c(=O)n(CC)c2cc(S(=O)(=O)N3CCC(c4ccccc4)CC3)ccc21` [1,3-diethyl-5-(4-phenylpiperidin-1-yl)sulfonyl-benzimidazol-2-one], a half-maximal effect (EC50) was put at 10.8 µM.
Still for that read-out and setting: next, `CS(=O)(=O)N(CC(=O)N1CCN(c2ccc(F)cc2)CC1)c1ccc(F)c(Cl)c1` [MLS000531433]: 5.57 µM.
Still for that read-out and setting: next, `O=S(=O)(NCc1ccccc1)c1ccc(Cl)c(S(=O)(=O)NCc2ccccc2)c1` [1-N,3-N-dibenzyl-4-chlorobenzene-1,3-disulfonamide]: 2.34 µM; `O=C(O)c1cc(-c2ccc(F)cc2F)ccc1O`: 25.7 µM.
Turning to `Cc1ccc(S(=O)(=O)N2CCC(=O)N(C(COCc3ccccc3)Cc3ccccc3)CC2)cc1` (configuration not stated) [1-(4-methylphenyl)sulfonyl-4-(1-phenyl-3-phenylmethoxy-propan-2-yl)-1,4-diazepan-5-one], a half-maximal effect (EC50) was put at 1.69 µM.
As to `Cc1ccc(NC(=O)CCCSc2ccccc2)cc1S(=O)(=O)N1CCOCC1` [MLS000761060], a half-maximal response (EC50) required 6.79 µM.
Same read-out and setting: next, `O=C(OCn1ncc(Cl)c(Cl)c1=O)c1ccc(F)cc1` [(4,5-dichloro-6-oxopyridazin-1-yl)methyl 4-fluorobenzoate]: 14.1 µM; `CCC(c1nnc(SCc2nc3ccccc3s2)n1Cc1ccccc1)N(C)C` (configuration not stated) [1-[5-(1,3-benzothiazol-2-ylmethylsulfanyl)-4-(phenylmethyl)-1,2,4-triazol-3-yl]-N,N-dimethyl-propan-1-amine]: 14.7 µM; `O=C(CSc1ccc(-c2ccccc2)nn1)Nc1ccc2c(c1)OCCO2` [MLS000724887]: 3.48 µM.
Same read-out and setting: next, `CC1Cc2ccccc2N1C(=O)CSc1nnnn1Cc1ccccc1` (configuration not stated) [1-(2-methyl-2,3-dihydroindol-1-yl)-2-[[1-(phenylmethyl)-1,2,3,4-tetrazol-5-yl]sulfanyl]ethanone]: 13.6 µM; `Cc1oc(-c2ccccc2)nc1C[S+]([O-])CC(=O)N1CCc2ccccc2C1` (configuration not stated) [1-(3,4-dihydro-1H-isoquinolin-2-yl)-2-[(5-methyl-2-phenyl-1,3-oxazol-4-yl)methylsulfinyl]ethanone]: 7.74 µM; `COc1ccc(-c2cc(CCCC(=O)NCCc3ccccc3)no2)cc1` [4-[5-(4-methoxyphenyl)-1,2-oxazol-3-yl]-N-(2-phenylethyl)butanamide]: 0.725 µM.
For the molecule `O=C(Nc1ccc2oc(-c3ccccc3)nc2c1)c1ccncc1` [MLS000109492], the concentration for a half-maximal effect (EC50) was 4.95 µM. This EC50 lies about 6.8-fold higher than the previous one.
Molecule `CCn1nnnc1SCC(=O)Nc1nc(-c2cccs2)cs1` [2-(1-Ethyl-1H-tetrazol-5-ylsulfanyl)-N-(4-thiophen-2-yl-thiazol-2-yl)-acetamide] showed an EC50 of 1.32 µM.
Still for that read-out and setting: next, `Sc1nnc(C2(c3ccccc3)CCCC2)o1` [5-(1-phenylcyclopentyl)-3H-1,3,4-oxadiazole-2-thione]: 3.3 µM.

The same test, now with this note: inactive by the depositor's call.
`CCOc1ccccc1CNC(=O)C1CCN(c2nc3ccccc3o2)CC1` [1-(1,3-benzoxazol-2-yl)-N-(2-ethoxybenzyl)isonipecotamide]: a half-maximal response (EC50) required 95.9 µM.
`CC(C)Oc1ccccc1OCCCOc1cccc2cccnc12` [8-[3-(2-isopropoxyphenoxy)propoxy]quinoline] came in with an EC50 of 10.5 µM.
Regarding `Cc1cc2ccccn2c1C(=O)c1nc(N2CCOCC2)ncc1Cl` [(5-chloranyl-2-morpholin-4-yl-pyrimidin-4-yl)-(2-methylindolizin-3-yl)methanone], the EC50 was 11 µM. This EC50 and that of the molecule before are within 1.5-fold of each other.
`O=C(CSc1nnnn1-c1ccccc1)Nc1nsc(-c2ccccc2)n1` [2-(1-phenyltetrazol-5-yl)sulfanyl-N-(5-phenyl-1,2,4-thiadiazol-3-yl)acetamide]: the concentration giving a half-maximal response (EC50) worked out at 1.4 µM.
